The target in test [1] is T1, FAK (Homo sapiens, UniProt Q05397). As to the kind of experiment: biochemical.
For test [2], the target named is T1, FAK. As to the kind of experiment: Cell-based capture ELISA for inhibition of FAK autophosphorylation [pY397] in MiaPaCa2 cells. How it is done: Cell-Based Assays for Inhibition of FAK Autophosphorylation: MiaPaCa2 and U87MG
ELISA kit from Invitrogen (KHO0441).
Reagents Provided in Biosource FAK [pY397]
The cells were then suspended in cell assay medium.
Background: ELISA stands for enzyme-linked immunosorbent assay.

Setting [3] is: MIA-PaCa2 cells on fibronectin, 2 h, no plasma, read-out: Mean FAK Cell Mechanistic IC50 MIA-PaCa2.
[4] abbreviates: MIA-PaCa2 cells, + 50% human plasma, read-out: Mean FAK Cell Mechanistic IC50 + 50% hP MIA-PaCa2.
Where [5] appears, read: MIA-PaCa2 cells, + 50% mouse plasma (Table 2), read-out: Mean FAK Cell Mechanistic IC50 + 50% mP MIA-PaCa2.

16 molecules from patent US9096624B2 (OSI Pharmaceuticals, LLC, priority 2009, dated 2015) can be followed below.

As usually defined, the IC50 is the midpoint of a concentration-inhibition curve.

Each structure is given as a SMILES string.

T1 sequence (Q05397 whole entry): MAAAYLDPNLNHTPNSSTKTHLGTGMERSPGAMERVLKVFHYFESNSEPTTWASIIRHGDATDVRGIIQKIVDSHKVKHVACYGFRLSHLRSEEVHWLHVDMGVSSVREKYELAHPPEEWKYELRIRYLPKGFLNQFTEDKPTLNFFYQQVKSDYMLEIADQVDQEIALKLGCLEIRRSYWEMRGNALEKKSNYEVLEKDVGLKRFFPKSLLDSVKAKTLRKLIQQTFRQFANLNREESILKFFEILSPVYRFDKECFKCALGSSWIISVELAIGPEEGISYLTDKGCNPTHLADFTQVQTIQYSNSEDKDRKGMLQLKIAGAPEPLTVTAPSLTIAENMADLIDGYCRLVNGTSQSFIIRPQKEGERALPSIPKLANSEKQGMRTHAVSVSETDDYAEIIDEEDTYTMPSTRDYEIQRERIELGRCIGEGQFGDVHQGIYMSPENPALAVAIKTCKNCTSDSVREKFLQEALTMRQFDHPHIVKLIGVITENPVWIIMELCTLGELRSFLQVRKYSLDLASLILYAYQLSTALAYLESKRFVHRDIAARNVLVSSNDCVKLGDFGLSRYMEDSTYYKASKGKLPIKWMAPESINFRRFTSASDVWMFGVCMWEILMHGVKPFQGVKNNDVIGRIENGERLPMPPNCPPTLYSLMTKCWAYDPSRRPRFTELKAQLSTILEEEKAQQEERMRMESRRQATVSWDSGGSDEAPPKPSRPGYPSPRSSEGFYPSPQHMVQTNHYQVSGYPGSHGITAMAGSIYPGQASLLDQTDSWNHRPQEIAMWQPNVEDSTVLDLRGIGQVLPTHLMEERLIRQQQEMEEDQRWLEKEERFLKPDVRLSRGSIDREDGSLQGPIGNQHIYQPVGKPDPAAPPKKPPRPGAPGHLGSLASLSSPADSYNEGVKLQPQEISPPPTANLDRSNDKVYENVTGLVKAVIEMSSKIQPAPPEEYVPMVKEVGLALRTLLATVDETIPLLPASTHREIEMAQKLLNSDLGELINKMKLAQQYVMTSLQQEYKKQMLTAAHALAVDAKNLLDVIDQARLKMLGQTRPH

For the molecule `CCCOP(=O)(Cc1ccc(Nc2ncc(C(F)(F)F)c(NCc3cccnc3N(C)S(C)(=O)=O)n2)cc1)OCCC` [Example 28, dipropyl [4-({4-[({2-[methyl(methylsulfonyl)amino]pyridin-3-yl}methyl)amino]-5-(trifluoromethyl)pyrimidin-2-yl}amino)benzyl]phosphonate], the IC50 against FAK [1], on FAK [2] (setting [3]), on FAK [2] (setting [4]) and on FAK [2] (setting [5]) was under 1000 nM each time.
As for `CCC(C)OP(=O)(Cc1ccc(Nc2ncc(C(F)(F)F)c(NCc3cccnc3N(C)S(C)(=O)=O)n2)cc1)OC(C)CC` (centres unmarked) [Example 29, dibutan-2-yl [4-({4-[({2-[methyl(methylsulfonyl)amino]pyridin-3-yl}methyl)amino]-5-(trifluoromethyl)pyrimidin-2-yl}amino)benzyl]phosphonate], the half-maximal inhibitory concentration (IC50) against FAK [1] is under 1000 nM; at FAK [2] (setting [3]), under 1000 nM; at FAK [2] (setting [4]), 1000 to 10000 nM; on FAK [2] (setting [5]), 1000 to 10000 nM.
`CC(C)COP(=O)(Cc1ccc(Nc2ncc(C(F)(F)F)c(NCc3cccnc3N(C)S(C)(=O)=O)n2)cc1)OCC(C)C` [Example 30, bis(2-methylpropyl) [4-({4-[({2-[methyl(methylsulfonyl)amino]pyridin-3-yl}methyl)amino]-5-(trifluoromethyl)pyrimidin-2-yl}amino)benzyl]phosphonate]: the IC50 against FAK [1] was under 1000 nM; at FAK [2] (setting [3]) it was 1000 to 10000 nM; at FAK [2] (setting [4]), 1000 to 10000 nM; on FAK [2] (setting [5]), 1000 to 10000 nM.
Regarding `CN(c1ncccc1CNc1nc(Nc2ccc(CP3(=O)OCCCO3)cc2)ncc1C(F)(F)F)S(C)(=O)=O` [Example 31, N-methyl-N-[3-({[2-({4-[(2-oxido-1,3,2-dioxaphosphinan-2-yl)methyl]phenyl}amino)-5-(trifluoromethyl)pyrimidin-4-yl]amino}methyl)pyridin-2-yl]methanesulfonamide], the IC50 against FAK [1], on FAK [2] (setting [3]), at FAK [2] (setting [4]) and on FAK [2] (setting [5]) was under 1000 nM each time.
Turning to `CN(c1ncccc1CNc1nc(Nc2ccc(CP3(=O)OCC(C)(C)CO3)cc2)ncc1C(F)(F)F)S(C)(=O)=O` [Example 32, N-[3-({[2-({4-[(5,5-dimethyl-2-oxido-1,3,2-dioxaphosphinan-2-yl)methyl]phenyl}amino)-5-(trifluoromethyl)pyrimidin-4-yl]amino}methyl)pyridin-2-yl]-N-methylmethanesulfonamide], the IC50 against FAK [1], at FAK [2] (setting [3]), at FAK [2] (setting [4]) and on FAK [2] (setting [5]) was under 1000 nM each time.
As for `CN(c1ncccc1CNc1nc(Nc2ccc(CP(=O)(OCCc3ccsc3)OCCc3ccsc3)cc2)ncc1C(F)(F)F)S(C)(=O)=O` [Example 33, bis[2-(thiophen-3-yl)ethyl] [4-({4-[({2-[methyl(methylsulfonyl)amino]pyridin-3-yl}methyl)amino]-5-(trifluoromethyl)pyrimidin-2-yl}amino)benzyl]phosphonate], the IC50 at FAK [1] is under 1000 nM; at FAK [2] (setting [5]) it was over 10000 nM.
Taken in the same sequence, the figures for `CN(c1ncccc1CNc1nc(Nc2ccc(CP(=O)(OCC3CCC3)OCC3CCC3)cc2)ncc1C(F)(F)F)S(C)(=O)=O` [Example 34, bis(cyclobutylmethyl) [4-({4-[({2-[methyl(methylsulfonyl)amino]pyridin-3-yl}methyl)amino]-5-(trifluoromethyl)pyrimidin-2-yl}amino)benzyl]phosphonate] were under 1000 nM and 1000 to 10000 nM.
Taken in the same sequence, the figures for `CC(C)OP(=O)(Cc1cccc(Nc2ncc(C(F)(F)F)c(NCc3cccnc3N(C)S(C)(=O)=O)n2)c1)OC(C)C` [Example 35, Dipropan-2-yl [3-({4-[({2-[methyl(methylsulfonyl)amino]pyridin-3-yl}methyl)amino]-5-(trifluoromethyl)pyrimidin-2-yl}amino)benzyl]phosphonate] were under 1000 nM and 1000 to 10000 nM.
On to `COP(=O)(OC)c1ccc(Nc2ncc(C(F)(F)F)c(NCc3cccnc3N(C)S(C)(=O)=O)n2)cc1` [Example 36, Dimethyl [4-({4-[({2-[methyl(methylsulfonyl)amino]pyridin-3-yl}methyl)amino]-5-(trifluoromethyl)pyrimidin-2-yl}amino)phenyl]phosphonate], for which the IC50 against FAK [1] and at FAK [2] (setting [5]) was under 1000 nM each time.
In the case of `CCCOP(=O)(OCCC)c1ccc(Nc2ncc(C(F)(F)F)c(NCc3cccnc3N(C)S(C)(=O)=O)n2)cc1` [Example 37, dipropyl [4-({4-[({2-[methyl(methylsulfonyl)amino]pyridin-3-yl}methyl)amino]-5-(trifluoromethyl)pyrimidin-2-yl}amino)phenyl]phosphonate], the results for the IC50 at FAK [1] and on FAK [2] (setting [5]) were under 1000 nM and 1000 to 10000 nM, respectively.
Taken in the same sequence, the figures for `CC(C)OP(=O)(OC(C)C)c1ccc(Nc2ncc(C(F)(F)F)c(NCc3cccnc3N(C)S(C)(=O)=O)n2)cc1` [Example 38, dipropan-2-yl [4-({4-[({2-[methyl(methylsulfonyl)amino]pyridin-3-yl}methyl)amino]-5-(trifluoromethyl)pyrimidin-2-yl}amino)phenyl]phosphonate] were under 1000 nM and 1000 to 10000 nM.
For the molecule `CCOP(=O)(OCC)c1cccc(Nc2ncc(C(F)(F)F)c(NCc3cccnc3N(C)S(C)(=O)=O)n2)c1` [Example 39, diethyl [3-({4-[({2-[methyl(methylsulfonyl)amino]pyridin-3-yl}methyl)amino]-5-(trifluoromethyl)pyrimidin-2-yl}amino)phenyl]phosphonate], the IC50 was under 1000 nM against FAK [1] and 1000 to 10000 nM at FAK [2] (setting [5]).
Take `CCOP(=O)(O)c1ccc(Nc2ncc(C(F)(F)F)c(NCc3cccnc3N(C)S(C)(=O)=O)n2)cc1` [Example 40, Ethyl hydrogen [4-({4[({2-[methyl(methylsulfonyl)amino]pyridin-3-yl}methyl)amino]-5-(trifluoromethyl)pyrimidin-2-yl}amino)phenyl]phosphonate]: the concentration for half-maximal inhibition (IC50) against FAK [1] is under 1000 nM; on FAK [2] (setting [3]), 1000 to 10000 nM; at FAK [2] (setting [4]) it was 1000 to 10000 nM.
`CCOP(=O)(O)Cc1ccc(Nc2ncc(C(F)(F)F)c(NCc3cccnc3N(C)S(C)(=O)=O)n2)cc1` [Example 42, Ethyl hydrogen [4-({4-[({2-[methyl(methylsulfonyl)amino]pyridin-3-yl}methyl)amino]-5-(trifluoromethyl)pyrimidin-2-yl}amino)benzyl]phosphonate]: the results for the IC50 on FAK [1], on FAK [2] (setting [3]) and at FAK [2] (setting [4]) were under 1000 nM, 1000 to 10000 nM and 1000 to 10000 nM, respectively.
Consider `CN(c1ncccc1CNc1nc(Nc2cccc(CP(=O)(O)O)c2)ncc1C(F)(F)F)S(C)(=O)=O` [Example 43, [3-({4-[({2-[Methyl(methylsulfonyl)amino]pyridin-3-yl}methyl)amino]-5-(trifluoromethyl)pyrimidin-2-yl}amino)benzyl]phosphonic acid], for which the IC50 on FAK [1] was under 1000 nM; on FAK [2] (setting [3]) it was 1000 to 10000 nM; at FAK [2] (setting [4]), 1000 to 10000 nM; on FAK [2] (setting [5]), 1000 to 10000 nM.
Regarding `CCOP(=O)(O)Cc1cccc(Nc2ncc(C(F)(F)F)c(NCc3cccnc3N(C)S(C)(=O)=O)n2)c1` [Example 44, Ethyl hydrogen [3-({4[({2-[methyl(methylsulfonyl)amino]pyridin-3-yl}methyl)amino]-5-(trifluoromethyl)pyrimidin-2-yl}amino)benzyl]phosphonate], the figures for the IC50 at FAK [1], on FAK [2] (setting [3]) and on FAK [2] (setting [4]) were under 1000 nM, over 10000 nM and over 10000 nM, respectively.
